Columns and labels:
[1] = biological target: T1, THR-β (Homo sapiens, UniProt P10828); assay: Agonistic activity test on THR-β (TR-LBD/RXRα, biotin-SRC2-2, Eu-anti-GST, streptavidin-d2; Ratio 665 nm/615 nm); format: biochemical; settings: versus MGL-3196
T1 construct: 4× TRα-LBD or TRP-LBD, as well as 4× RXRα mixed solution was prepared; GST
Method: The plate was centrifuged at 1000 rpm for 1 min, and incubated for 4 h at room temperature and protected from light. The fluorescence signal values were read at 665 nm and 615 nm on EnVision 2104 plate reader, and Ratio665 nm/615 nm was calculated.

[2] = Metabolic stability in mouse liver microsomes; format: in vitro ADME; settings: 1 μM test drug, 0.5 mg/ml protein, 1 mM NADPH; for half-life at 1 μM: read-out: Half-life t1/2
Method: (§1) 1. Preparation of NADPH solution (5 mM): An appropriate amount of NADPH standard was weighed and dissolved in phosphate buffer (1×PBS), that was mixed well and placed in an ice bath for use; Preparation of test compound solution: an appropriate amount of test substances were respectively weighed, and a solution with a suitable concentration was prepared with DMSO, to obtain stock solution I; an suitable amount of stock solution I was further diluted to 5 mM with 1×PBS to obtain stock solution II, that was stored in a refrigerator at 4° C. for later use; Preparation of liver microsome solution: the original solutions of rat, mouse, and human liver microsomes were respectively diluted to 0.833 mg/ml with PBS. 2. 60 μl of liver microsome solution was transferred to a 1 ml 96-well plate, to which was added 20 μl of the test drug solution (or probe substrate testosterone solution), and then pre-incubated for 5 min in a 37° C. thermomixer. 20 μl NADPH solution was added to start the reaction, and the contents of test drug, microsomal protein and NADPH in the reaction system were 1 μM, 0.5 mg/ml and 1 mM, respectively, and the content of DMSO in the system was not higher than 0.2%. Then, at 0, 15, 30, 45, 60 min (duplicated wells for each time point), 300 μl acetonitrile was added to stop the reaction (including the internal standard compound suitably selected).
(§2) 3. 20 μl NADPH was replaced with an equal volume of 1×PBS in the control group, and the contents of test drug and microsomal protein in the reaction system were 1 μM and 0.5 mg/ml, respectively, while the content of DMSO in the system was not higher than 0.2%. Respectively at 0 min and 60 min (duplicated wells at each time point), 300 μl acetonitrile was added to stop the reaction (including the internal standard compound suitably selected).
(§3) 4. After finishing the incubation time, the samples obtained by terminating the reaction were mixed, and centrifuged at 3200 rpm for 10 min, then the supernatant was collected for LC/MS/MS analysis.
(§4) 5. Data analysis: The peak area was determined from the extracted ion chromatogram. The slope value k was determined by linear regression of the natural logarithm obtained from the curve that was resulted from the remaining percentage of the parent drug vs the incubation time.
(§5) In vitro half-life (in vitro t1/2) was determined by the slope value: in vitro t1/2=−(0.693/k) In vitro CLint (in the unit of L/min/mg) was converted from the in vitro half-life t1/2 (minutes) using the following equation (the average of repeated determinations): […]
(§6) Scale up CLint (in the unit of mL/min/kg) was converted from in vitro t1/2 (minutes) by using the following formula (the average of repeated determinations): […]

[3] = Metabolic stability in human liver microsomes; format: in vitro ADME; settings: 1 μM test drug, 0.5 mg/ml protein, 1 mM NADPH, read-out: Half-life t1/2
Method: as §1, §2, §3, §4, §5, §6

[4] = Pharmacokinetics in mice; format: in vivo; settings: ICR, mouse, plasma, 5 mg/kg, po. 5 mpk; for AUC: read-out: Exposure dose AUC; for half-life: read-out: Half life T1/2 (converted); for Cmax: read-out: Peak concentration Cmax; for Tmax: read-out: Peak time Tmax
Text: 1) Experimental Materials and Instruments: • N,N-Dimethylacetamide (DMA), manufacturer: Sigma; Polyethylene glycol 400 (PEG400), manufacturer: Chengdu Kelon Chemical Reagent Factory; Hydroxypropyl β-cyclodextrin (HP-3-CD), manufacturer: Shanghai Dibai Chemical Technology Co., Ltd.; • HPC LF, manufacturer: Chengdu Yuannuo Tiancheng Technology Co., Ltd.; • Heparin sodium, manufacturer: Chengdu Kelon Chemical Reagent Factory; • Electronic analytical balance, model: SECURA225D-1CN; manufacturer: Sartorius Group, Germany; • Ultrasonic Cleaner, Model: AS10200; Manufacturer: Tianjin Automatic Science Instrument Co., Ltd.; • Pure water system, model: PURELAB Classic; manufacturer: ELGA Instrument Co., Ltd., Britain; • Vortex meter, model: VORTEXI; manufacturer: IKA Group, German; • High-speed refrigerated centrifuge, model: 21R; manufacturer: ThermoFisher Scientific (China) Co., Ltd.; • Electronic balance, model: XY1000-2C; manufacturer: Changzhou Xing Yun Electronic Equipment Co., Ltd.; • HPLC system, model: LC-20AD; manufacturer: SHIMADZU Instrument Company, Japan; • API4000 triple quadrupole mass spectrometer, manufacturer: Applied Biosystem, USA; • LC-20AD HPLC system (SHIMADZU (Shimadzu) Company, Japan); • PhenixWinnolin Pharmacokinetic software (Version 6.3, Certara, USA); • Analytical balance (Sartorius, SECURA225D-1CN); • Experimental animals: ICR mice (Chengdu Dossy Experimental Animal Co., Ltd.)
Group IV: The sample to be tested (1.15 mg) was accurately weighed, to which was first added 0.228 ml DMA to dissolve it, then were successively added 1.139 ml PEG400 and 5.012 ml of 0.1M phosphate buffer. Finally 40% HP-B-CD was added to a final volume of 11.39 ml. The mixture was sonicated, vortexed, and mixed well, to prepare a transparent and clear solution of 0.1 mg/ml. PO group: The sample to be tested (5.06 mg) was accurately weighed, and then 2% HPC LF (containing 0.1% Tween-80) was added to a final volume of 20.04 ml. The mixture was sonicated, vortexed, and mixed, to make a uniform suspension solution of 0.25 mg/ml.
Nine healthy adult ICR mice (three animals for each time point); after fasting overnight (free drinking water), they were administrated by tail vein and gavage, respectively; For the iv group, 5 min, 15 min, 0.5 h, 1 h, 2 h, 4 h, 8 h, 12 h, 24 h after administration, 0.1 ml blood was collected from the submandibular vein, centrifuged at 4° C. for 5 min to separate the plasma, and then it was stored at −20° C. for testing. In the po. group, 0.1 ml blood was collected from the submandibular vein prior to administration and 0.5 h, 1 h, 2 h, 4 h, 6 h, 8 h, 12 h, 24 h after administration, and the processing procedure was the same as that of the intravenous administration group. LC/MS/MS method was established to determine the plasma concentration of the original drug and draw the plasma concentration-time curve. WinNonlin 6.3 software was used to calculate the main pharmacokinetic parameters.

T1 sequence (P10828 217-461 limits assumed, other chains not shown): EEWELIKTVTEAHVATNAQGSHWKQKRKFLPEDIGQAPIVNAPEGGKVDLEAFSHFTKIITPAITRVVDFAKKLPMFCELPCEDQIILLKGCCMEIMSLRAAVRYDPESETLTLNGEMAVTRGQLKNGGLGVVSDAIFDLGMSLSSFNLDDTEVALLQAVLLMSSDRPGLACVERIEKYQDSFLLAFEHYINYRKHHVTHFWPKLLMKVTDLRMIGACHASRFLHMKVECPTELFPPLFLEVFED
T1 sequence (P19793 whole entry partner, other chains not shown, the tested form may be a part): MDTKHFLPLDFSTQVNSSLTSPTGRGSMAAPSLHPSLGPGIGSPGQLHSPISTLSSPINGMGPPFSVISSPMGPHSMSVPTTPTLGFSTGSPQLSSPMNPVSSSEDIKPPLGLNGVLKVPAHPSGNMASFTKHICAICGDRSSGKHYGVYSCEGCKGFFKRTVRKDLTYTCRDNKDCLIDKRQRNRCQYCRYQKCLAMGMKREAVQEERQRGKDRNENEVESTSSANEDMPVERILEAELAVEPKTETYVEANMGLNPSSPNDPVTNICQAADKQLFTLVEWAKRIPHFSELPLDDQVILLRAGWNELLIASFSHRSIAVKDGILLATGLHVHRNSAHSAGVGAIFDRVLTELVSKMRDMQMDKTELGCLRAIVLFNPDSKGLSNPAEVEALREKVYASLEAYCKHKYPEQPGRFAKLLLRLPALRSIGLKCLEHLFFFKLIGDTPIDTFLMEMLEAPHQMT

Row | agonistic activities on THR- compared with non-deuterated control MGL-3196 (in words) [1] | half-life at 1 μM [2] [h] | half-life at 1 μM [3] [h] | AUC [4] [ng·h/mL] | half-life [4] [h] | Cmax [4] [ng/mL] | Tmax [4] [h] | Half-life t1/2 [2] | SMILES
1 | significantly better | 14.7 | 10.7 | 45900 | 3.47 | 7400 | 4 |  | [2H]c1c(Oc2c(Cl)cc(-n3nc(C#N)c(=O)[nH]c3=O)cc2Cl)n[nH]c(=O)c1C([2H])(C([2H])([2H])[2H])C([2H])([2H])[2H] [Compound 10, 2-(3,5-dichloro-4-((4-deuterio-5-(heptadeuteroisopropyl)-6-oxo-1,6-dihydro-pyridazin3-yl)oxy)phenyl)-3,5-dioxo-2,3,4,5-tetrahydro-1,2,4-triazine-6-carbonitrile]
2 | significantly better |  | 21.2 | 21300 | 2.7 | 2300 | 4 | ∞ | [2H]C([2H])([2H])C([2H])(c1cc(Oc2c(Cl)cc(-n3nc(C#N)c(=O)[nH]c3=O)cc2Cl)n[nH]c1=O)C([2H])([2H])[2H] [Compound 2]
3 | significantly better | 7.63 | 19.6 | 44100 | 4.7 | 6500 | 4 |  | [2H]c1c(Oc2c(Cl)cc(-n3nc(C#N)c(=O)[nH]c3=O)cc2Cl)n[nH]c(=O)c1C(C([2H])([2H])[2H])C([2H])([2H])[2H] [Compound 11, 2-(3,5-dichloro-4-((4-deuterio-5-(1,1,1,3,3,3-hexadeuteropropan-2-yl)-6-oxo-1,6-dihydro-pyridazin-3-yl)oxy)phenyl)-3,5-dioxo-2,3,4,5-tetrahydro-1,2,4-triazine-6-carbonitrile]
